# Data reported in PubChem BioAssay (NCI).
#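 Exposure lasted 48 hours, with cells grown in 96-well plates and compounds tested at five concentrations. TGI is the concentration that stops growth completely.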
# What was measured:
# Assay in all cases: DTP human tumour cell line panel, 48 h
# SF-268 CNS = tested on: SF-268 CNS
# 786-0 renal = tested on: 786-0 renal
# UO-31 renal = tested on: UO-31 renal
# DU-145 prostate = tested on: DU-145 prostate
# TK-10 renal = tested on: TK-10 renal
# NCI/ADR-RES ovarian = tested on: NCI/ADR-RES ovarian
# CCRF-CEM leukemia = tested on: CCRF-CEM leukemia
# U251 CNS = tested on: U251 CNS
# COLO 205 colon = tested on: COLO 205 colon
# MOLT-4 leukemia = tested on: MOLT-4 leukemia
# OVCAR-3 ovarian = tested on: OVCAR-3 ovarian
# SF-295 CNS = tested on: SF-295 CNS
# OVCAR-4 ovarian = tested on: OVCAR-4 ovarian
# ACHN renal = tested on: ACHN renal
# HCT-116 colon = tested on: HCT-116 colon
# MALME-3M melanoma = tested on: MALME-3M melanoma
# HCT-15 colon = tested on: HCT-15 colon
# OVCAR-8 ovarian = tested on: OVCAR-8 ovarian
# A498 renal = tested on: A498 renal
# UACC-257 melanoma = tested on: UACC-257 melanoma
# RXF 393 renal = tested on: RXF 393 renal
# NCI-H226 lung = tested on: NCI-H226 lung
# LOX IMVI melanoma = tested on: LOX IMVI melanoma
# NCI-H522 lung = tested on: NCI-H522 lung
# K-562 leukemia = tested on: K-562 leukemia
# SF-539 CNS = tested on: SF-539 CNS
# SK-OV-3 ovarian = tested on: SK-OV-3 ovarian
# KM12 colon = tested on: KM12 colon
# A549 NSCLC = tested on: A549 NSCLC
# HS 578T breast = tested on: HS 578T breast
# IGROV1 ovarian = tested on: IGROV1 ovarian
# UACC-62 melanoma = tested on: UACC-62 melanoma
# MCF7 breast = tested on: MCF7 breast
# SR leukemia = tested on: SR leukemia
# HL-60(TB) leukemia = tested on: HL-60(TB) leukemia
# OVCAR-5 ovarian = tested on: OVCAR-5 ovarian
# HT29 colon = tested on: HT29 colon
# SNB-75 CNS = tested on: SNB-75 CNS
# T-47D breast = tested on: T-47D breast
# SK-MEL-28 melanoma = tested on: SK-MEL-28 melanoma
# HOP-92 NSCLC = tested on: HOP-92 NSCLC
# CAKI-1 renal = tested on: CAKI-1 renal
# SW-620 colon = tested on: SW-620 colon
# HOP-62 NSCLC = tested on: HOP-62 NSCLC
# SK-MEL-5 melanoma = tested on: SK-MEL-5 melanoma
# RPMI-8226 leukemia = tested on: RPMI-8226 leukemia
# PC-3 prostate = tested on: PC-3 prostate
# MDA-MB-231 breast = tested on: MDA-MB-231 breast
# NCI-H23 lung = tested on: NCI-H23 lung
# SN12C renal = tested on: SN12C renal
# MDA-N = tested on: MDA-N
# SK-MEL-2 melanoma = tested on: SK-MEL-2 melanoma
# NCI-H460 lung = tested on: NCI-H460 lung
# SNB-19 CNS = tested on: SNB-19 CNS
# MDA-MB-435 = tested on: MDA-MB-435
# M14 melanoma = tested on: M14 melanoma
structure (smiles),measurement,setting,value
COc1cc(O)c2c(c1)OCC1(Cc3cc(OC)c(OC)cc31)C2=O (stereo unspecified),TGI,SF-268 CNS,> 100 µM
same,TGI,786-0 renal,> 100 µM
same,TGI,UO-31 renal,> 100 µM
same,TGI,DU-145 prostate,> 100 µM
same,TGI,TK-10 renal,> 100 µM
same,TGI,NCI/ADR-RES ovarian,> 100 µM
same,TGI,CCRF-CEM leukemia,> 100 µM
same,TGI,U251 CNS,> 100 µM
same,TGI,COLO 205 colon,> 100 µM
same,TGI,MOLT-4 leukemia,> 100 µM
same,TGI,OVCAR-3 ovarian,> 100 µM
same,TGI,SF-295 CNS,> 100 µM
same,TGI,OVCAR-4 ovarian,> 100 µM
same,TGI,ACHN renal,> 100 µM
same,TGI,HCT-116 colon,> 100 µM
same,TGI,MALME-3M melanoma,> 100 µM
same,TGI,HCT-15 colon,> 100 µM
same,TGI,OVCAR-8 ovarian,> 100 µM
same,TGI,A498 renal,> 100 µM
same,TGI,UACC-257 melanoma,> 100 µM
same,TGI,RXF 393 renal,> 100 µM
same,TGI,NCI-H226 lung,> 100 µM
same,TGI,LOX IMVI melanoma,> 100 µM
same,TGI,NCI-H522 lung,> 100 µM
same,TGI,K-562 leukemia,> 100 µM
same,TGI,SF-539 CNS,> 100 µM
same,TGI,SK-OV-3 ovarian,> 100 µM
same,TGI,KM12 colon,> 100 µM
same,TGI,A549 NSCLC,66.8 µM
same,TGI,HS 578T breast,> 100 µM
same,TGI,IGROV1 ovarian,> 100 µM
same,TGI,UACC-62 melanoma,> 100 µM
same,TGI,MCF7 breast,> 100 µM
same,TGI,SR leukemia,> 100 µM
same,TGI,HL-60(TB) leukemia,> 100 µM
same,TGI,OVCAR-5 ovarian,> 100 µM
same,TGI,HT29 colon,> 100 µM
same,TGI,SNB-75 CNS,> 100 µM
same,TGI,T-47D breast,57.2 µM
same,TGI,SK-MEL-28 melanoma,> 100 µM
same,TGI,HOP-92 NSCLC,> 100 µM
same,TGI,CAKI-1 renal,> 100 µM
same,TGI,SW-620 colon,> 100 µM
same,TGI,HOP-62 NSCLC,> 100 µM
same,TGI,SK-MEL-5 melanoma,26.7 µM
same,TGI,RPMI-8226 leukemia,> 100 µM
same,TGI,PC-3 prostate,> 100 µM
same,TGI,MDA-MB-231 breast,> 100 µM
same,TGI,NCI-H23 lung,> 100 µM
same,TGI,SN12C renal,> 100 µM
same,TGI,MDA-N,> 100 µM
same,TGI,SK-MEL-2 melanoma,> 100 µM
same,TGI,NCI-H460 lung,> 100 µM
same,TGI,SNB-19 CNS,> 100 µM
same,TGI,MDA-MB-435,> 100 µM
same,TGI,M14 melanoma,> 100 µM
